The numbers were not newly measured in article PMC10855781 (International Journal of Molecular Sciences, 2024), which cites them from elsewhere.

Entries after “also recorded” stand apart in the source; their conditions may differ. Where two headings read alike, the source gives them in different places.

Series [1] has as its system human umbilical vein endothelial cells (HUVEC). More on the design: key: 0: no cardiotoxicity; +: weak; ++: moderate; +++: strong cardiotoxicity. Conditions: long-term (0–72 h) cytotoxic effect, impedimetric; ref [75]. An excerpt: Table 2 Comparative study of cytotoxic effects and cardiotoxicity elicited by selected GnRH-based anthracycline conjugates. | column: Cardiotoxicity

Series [2] relates to human breast adenocarcinoma (MCF-7). Conditions: ref [75]. From the text: Table 2 Comparative study of cytotoxic effects and cardiotoxicity elicited by selected GnRH-based anthracycline conjugates. | column: IC50 Values (μM)
Series [3] has as its system human colorectal adenocarcinoma (HT-29). Conditions: Table 2; ref [75]. From the text: Table 2 Comparative study of cytotoxic effects and cardiotoxicity elicited by selected GnRH-based anthracycline conjugates. || Table 3 In vivo tumor growth inhibition of a few relevant Dau-GnRH-III conjugates. | column: Cytostatic Effect (IC50: μM) on HT-29 cells
Series [4] deals with Human cardiac myocytes (HCM). Set-up: key: 0: no cardiotoxicity; +: weak; ++: moderate; +++: strong cardiotoxicity. As to conditions: long-term (0–72 h) cytotoxic effect, impedimetric; ref [75]. An excerpt:
Table 2 Comparative study of cytotoxic effects and cardiotoxicity elicited by selected GnRH-based anthracycline conjugates. | column: Cardiotoxicity || The main drug-related toxic side effect of anthracyclines is cardiotoxicity, leading to cardiomyopathy and heart failure. Comparative experiments to determine the cardiotoxicity of peptide–anthracycline conjugates with different linkages might be informative for the other conjugates with different types of drugs as well. For this purpose, human cardiomyocytes (HCM) and human umbilical vein endothelial cells (HUVEC) were used as models. The long-term (0–72 h) cytotoxic effect of sixteen GnRH-based conjugates containing Dox and Dau was determined by real-time impedimetric sensing using th ...

For the next series, the system named is PANC-1 tumor. Conditions: ref [110]; for tumor growth inhibition by tumor volume: eighteen treatments, day 74. As for the experimental part: The in vivo tumor growth inhibitory effect of the conjugate and free Dau was investigated on s.c.-developed PANC-1 tumor-bearing SCID female mice. The free drug was applied once a week at a maximum tolerated dose of 1 mg/kg body weight (three treatments), while the conjugate was administered, on average, three times per a week either at a 2 mg/kg or 10 mg/kg dose, calculated as per the Dau content (eighteen treatments altogether). The first treatment was given on day 10 after tumor inoculation. After the third treatment with free Dau, the animals lost 20% of their weight; therefore, the mice i ...

The conditions of series [5]: lysosomal homogenate; Dau=Aoa-Gly-OH, Dau=Aoa-Gly-Phe-OH, H-Lys(Dau=Aoa)-OH; ref [110].
Series [6] has as its system PANC-1 (human pancreas adenocarcinoma). As to conditions: 10 μM, 72 h treatment, ref [110]. As for the experimental part:
(§1) We assessed a modified version of this peptide as a homing device, where Cys was replaced by Ser because the thiol group is not necessary to introduce an oxime linkage. […] Using this conjugate at 10 μM concentration, the cell viability of the PANC-1 cells was 0.1% after a 72 h treatment. In contrast, the cell viability of normal human dermal fibroblast (NHDF), a model of healthy cells, was roughly 75%, showing a significa ...

Series [7] concerns normal human dermal fibroblast (NHDF). As to conditions: 10 μM, 72 h treatment, ref [110]. As for the experimental part:
as §1

A short description of another series: lysosomal homogenate. As to conditions: up to 72 h.
Series [8] can be described thus: rat liver lysosomal homogenate. Conditions: up to 6 h.
The subject of another series is PC3 cells. As to conditions: ref [84], read-out: cytostatic effect (IC50). An excerpt:
(§2) Table 4 In vitro and in vivo activity of bombesin analog–daunomycin conjugates on PC3 cells. | column: L1: Dau=Aoa-LRRY- […]le-NH2; L5: Dau=Aoa-LRRY- fQWAVGHStaL-NH2; L6: Dau=Aoa-LRRY- fQWAVβAlaHStaNle-NH2

In another series the test system is PC3 cancer cell lines. As to conditions: PC3, 1.5 h incubation; concentration for internalization of 50% of the conjugate in living cells; ref [84]; read-out: cellular uptake (UC50).
Excerpt: as §2

For series [9], the system named is PC-3 human prostatic adenocarcinoma. More on the design: method as in PMID 36834815. Conditions: s.c. PC-3, ref [84]. From the text: This 14-mer peptide (Glp-[…]NH2), first discovered in the skin of the frog Bombina bombina, is associated with the gastrin-releasing peptide (GRP) as a mammalian counterpart. The bombesin receptor family comprises neuromedin receptor B (NMB-R, or BB1), gastrin-releasing peptide receptor (GRP-R, or BB2) and bombesin receptor subtype 3 (BRS-3, or BB3). Among them, GRP-R has been the most investig ...

The subject of a further series is HT-29 tumor. Conditions: mouse, in vivo. As for the experimental part:
In our group, we synthesized conjugates based on a heptapeptide (VHLGYAT) selected by Zhang et al. and tested them on HT-29 human colon adenocarcinoma. Since sequence modification may result in different oxime-linked Dau-amino acid fragments, a cathepsin B- labile spacer was incorporated to the N-terminal of the homing peptide. From the parent compound (Dau=Aoa-LRRY-VHLGYAT-NH2), the potential positions that can be substituted were selected using Ala-scan. […] Statistical analysis was performed by Mann-Whitney test. *, ** and *** mean significant at p < 0.05, p < 0.01 and p < 0.001, respectively. Adapted with permission from ref. [18]. 2019, Elsevier. TEXT PRINTED IN THE PICTURE: (a) Dau: Tumour weight (g): 16% | (a) Parent: Tumour weight (g): 35% | (a) G/F exchange: Tumour weight (g): 11% | (b) Dau: Liver weight (g): 72% | (b) Parent: Liver weight (g): 101% | (b) G/F exchange: Liver weight (g): 90% | (c) Dau: Prol ...

Series [10] deals with different cancer cell lines, e.g. HT-29. As to conditions: ref [18]. An excerpt: In our group, we synthesized conjugates based on a heptapeptide (VHLGYAT) selected by Zhang et al. and tested them on HT-29 human colon adenocarcinoma. Since sequence modification may result in different oxime-linked Dau-amino acid fragments, a cathepsin B- labile spacer was incorporated to the N-terminal of the homing peptide. From the parent compound (Dau=Aoa-LRRY-VHLGYAT-NH2), the potential positions that can be substituted were selected using Ala-scan.

Turning to `COc1cccc2c1C(=O)c1c(O)c3c(c(O)c1C2=O)C[C@@](O)(C(=O)CO)C[C@@H]3O[C@H]1C[C@H](N)[C@H](O)[C@H](C)O1` [doxorubicin (Dox), doxorubicin], the “Cardiotoxicity, HUVEC” value in series [1] is “+++”. The IC50 in series [2] and in [3] was 0.1 µM throughout. Moreover, the “Cardiotoxicity, HCM” value in series [4] is recorded as “+++”.

Take “Dau=Aoa-GFLG-K(Dau=Aoa)SKAAKN-OH [listing 1 of 2 here]”: the entries for the “tumor growth inhibition by tumor volume” value in the series on PANC-1 tumor (2 mg/kg (Dau content)) and in the series on PANC-1 tumor (10 mg/kg (Dau content)) were 14% and 32.2%, respectively. Further, the tumor weight reduction in the series on PANC-1 tumor (2 mg/kg (Dau content)) is on record as 27.3%; with PANC-1 tumor (10 mg/kg (Dau content)), 30.4%. In addition, in the series on PANC-1 tumor (2 or 10 mg/kg Dau content), the toxic side effects result is listed as “No toxic side effects”. The “highest tumor inhibition rate” value in the series on PANC-1 tumor (day 67, after 16 treatments, dose not stated) is 43%. For the same compound, the “time of release of three drug-containing metabolites” value in series [5] was no more than 72 h. For the same compound, the figures for the cell viability in series [6] and in [7] were 0.1% and “roughly 75%”, respectively.

Consider “Dau=Aoa-GFLG-K(Dau=Aoa)SKAAKN-OH [listing 2 of 2 here]”, for which the fragment found result in “lysosomal homogenate” is given as “Dau=Aoa-Gly-Phe-OH, within 72 h; also recorded: H-Lys(Dau=Aoa)-OH, within 72 h”.

In the case of Dau=Aoa-LRRY- QWAVGHLNle-NH2, the fragment found result in series [8] was “Dau=Aoa-Leu-OH, less than 30 min”.

Consider Dau=Aoa-LRRY- QWAVGHLNle-NH2 [L1], for which, in the series on PC3 cells, the IC50 (commonly the midpoint of a concentration-inhibition curve) is 4.38 ± 0.33 µM. Also, the EC50 in the series with PC3 cancer cell lines is 22.9 µM.

Dau=Aoa-LRRY- fQWAVGHStaL-NH2: the fragment found entry in [8] is reported as “Dau=Aoa-Leu-OH, less than 30 min”.

Turning to Dau=Aoa-LRRY- fQWAVβAlaHStaNle-NH2, the fragment found result in series [8] is listed as “Dau=Aoa-Leu-OH, less than 30 min”.

Regarding Dau=Aoa-LRRY- fQWAVβAlaHStaNle-NH2 [L6], in [9] (i.p. 10 mg Dau-content/kg every fifth day from day 9, five treatments, day 33, Dau 1 mg/kg, terminated day 26), the tumor volume inhibition is 31.4%. Also, the tumor weight inhibition in [9] (i.p. 10 mg Dau-content/kg, five treatments, day 33) is on record as 33.1%. Besides, the “tumor DT enhancement” value in series [9] (tumor doubling time, 10 mg Dau-content/kg) was 11.5%. Besides, the IC50 in the series with PC3 cells is 18 ± 3.01 µM. Also, in the series on PC3 cancer cell lines, the EC50 is 16.1 µM.

Dau=Aoa-LRRY-VHLFYAT-NH2: in the series on HT-29 tumor, the “Liver weight, percent label in Figure 5b” value is reported as 90%. For the same compound, the “in vitro cytostasis, times higher activity than the parent conjugate” value in series [10] (different cancer cell lines) was 2–5 times; in series [10] (on HT-29) it was “up to 2.6 times”.

For N-O-CH2-CO-TFFYGGSRGKRNNFKTEEY-CONH2, the fragment found result in “lysosomal homogenate” is given as “Dau=Aoa-Thr-OH, major, within 1 h”.

NH2-TFFYGGSRGKRNNFKTEEY-CONH2: in the series “lysosomal homogenate”, the fragment found result is given as “H-Lys(Dau=Aoa)-OH, major, within 1 h”.
